Target: Aβ42 (Homo sapiens, UniProt P05067)
Assay: Th-T (thioflavin-T) assay of Aβ42 aggregation
Format: biochemical
Conditions: for Th-T fluorescence, mean of three wells: Aβ42 aggregation time course

Chain of Aβ42 (P05067 672-713): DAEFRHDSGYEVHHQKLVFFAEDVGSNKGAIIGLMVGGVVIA

Structure (SMILES): C=C1CC[C@@H]2[C@](C)(CC[C@H]3O[C@H](C=C(C)C)C[C@@]23C)[C@@H]1Cc1c(OC)oc(CO)c(C)c1=O [Compound 20]
- delay of the nucleation phase: no delay
- elongation of Aβ42: partly suppressed the elongation of Aβ42
- first Th-T assay result (Aβ42 (10 μM) ± DPPs (20 μM), room temperature): slightly suppressed
- Th-T fluorescence, mean of three wells (reading M117): 4.214
- Th-T fluorescence, mean of three wells (reading M118): 4.194
- Th-T fluorescence, mean of three wells (reading M119): 4.178
- Th-T fluorescence, mean of three wells (reading M120): 4.1845
- Th-T fluorescence, mean of three wells (reading M121): 4.166
- Th-T fluorescence, mean of three wells (reading M122): 4.139
- Th-T fluorescence, mean of three wells (reading M123): 4.16
- Th-T fluorescence, mean of three wells (reading M124): 4.194
- Th-T fluorescence, mean of three wells (reading M125): 4.155
- Th-T fluorescence, mean of three wells (reading M126): 4.13
- Th-T fluorescence, mean of three wells (reading M127): 4.172
- Th-T fluorescence, mean of three wells (reading M128): 4.137
- Th-T fluorescence, mean of three wells (reading M129): 4.1254
- Th-T fluorescence, mean of three wells (reading M130): 4.128
- Th-T fluorescence, mean of three wells (Fig. 7a) (column suffix _10, measurement M19): 3.317
- Th-T fluorescence, mean of three wells (Fig. 7a) (column suffix _10, measurement M20): 3.391
- Th-T fluorescence, mean of three wells (Fig. 7a) (column suffix _10, measurement M21): 3.434
- Th-T fluorescence, mean of three wells (Fig. 7a) (column suffix _10, measurement M22): 3.448
- Th-T fluorescence, mean of three wells (Fig. 7a) (column suffix _10, measurement M23): 3.464
- Th-T fluorescence, mean of three wells (Fig. 7a) (column suffix _10, measurement M24): 3.465
- Th-T fluorescence, mean of three wells (Fig. 7a) (column suffix _10, measurement M25): 3.454
- Th-T fluorescence, mean of three wells (Fig. 7a) (column suffix _10, measurement M26): 3.452
- Th-T fluorescence, mean of three wells (Fig. 7a) (column suffix _10, measurement M27): 3.468
- Th-T fluorescence, mean of three wells (Fig. 7a) (column suffix _10, measurement M28): 3.469
- Th-T fluorescence, mean of three wells (Fig. 7a) (column suffix _10, measurement M29): 3.45
- Th-T assay signal, mean of three wells (Fig. 7a) (column suffix _10, reading M1): 0.2292
- Th-T assay signal, mean of three wells (Fig. 7a) (column suffix _10, reading M2): 0.2545
- Th-T assay signal, mean of three wells (Fig. 7a) (column suffix _10, reading M3): 0.2762
- Th-T assay signal, mean of three wells (Fig. 7a) (column suffix _10, reading M4): 0.324
- Th-T assay signal, mean of three wells (Fig. 7a) (column suffix _10, reading M5): 0.3535
- Th-T assay signal, mean of three wells (Fig. 7a) (column suffix _10, reading M6): 0.4731
- Th-T assay signal, mean of three wells (Fig. 7a) (column suffix _10, reading M7): 0.5173
- Th-T assay signal, mean of three wells (Fig. 7a) (column suffix _10, reading M8): 0.5644
- Th-T assay signal, mean of three wells (Fig. 7a) (column suffix _10, reading M9): 0.6382
- Th-T assay signal, mean of three wells (Fig. 7a) (column suffix _10, reading M10): 0.6392
- Th-T assay signal, mean of three wells (Fig. 7a) (column suffix _10, reading M11): 0.7204
- Th-T assay signal, mean of three wells (Fig. 7a) (column suffix _10, reading M12): 0.8506
- Th-T assay signal, mean of three wells (Fig. 7a) (column suffix _10, reading M13): 1.108
- Th-T assay signal, mean of three wells (Fig. 7a) (column suffix _10, reading M14): 1.585
- Th-T assay signal, mean of three wells (Fig. 7a) (column suffix _10, reading M15): 2.1202
- Th-T assay signal, mean of three wells (Fig. 7a) (column suffix _10, reading M16): 2.635
- Th-T assay signal, mean of three wells (Fig. 7a) (column suffix _10, reading M17): 2.976
- Th-T assay signal, mean of three wells (Fig. 7a) (column suffix _10, reading M18): 3.206
- Fig. 7a Th-T reading, mean of three wells (column suffix _10, reading M85): 3.354
- Fig. 7a Th-T reading, mean of three wells (column suffix _10, reading M86): 3.35
- Fig. 7a Th-T reading, mean of three wells (column suffix _10, reading M87): 3.36
- Fig. 7a Th-T reading, mean of three wells (column suffix _10, reading M88): 3.344
- Fig. 7a Th-T reading, mean of three wells (column suffix _10, reading M89): 3.359
- Fig. 7a Th-T reading, mean of three wells (column suffix _10, reading M90): 3.344
- Fig. 7a Th-T reading, mean of three wells (column suffix _10, reading M91): 3.334
- Fig. 7a Th-T reading, mean of three wells (column suffix _10, reading M92): 3.329
- Fig. 7a Th-T reading, mean of three wells (column suffix _10, reading M93): 3.316
- Fig. 7a Th-T reading, mean of three wells (column suffix _10, reading M94): 3.328
- Fig. 7a Th-T reading, mean of three wells (column suffix _10, reading M95): 3.309
- Fig. 7a Th-T reading, mean of three wells (column suffix _10, reading M96): 3.312
- Fig. 7a Th-T reading, mean of three wells (column suffix _10, reading M97): 3.295
- Fig. 7a Th-T reading, mean of three wells (column suffix _10, reading M98): 3.318
- Fig. 7a Th-T reading, mean of three wells (column suffix _10, reading M99): 3.3
- Fig. 7a Th-T reading, mean of three wells (column suffix _10, reading M100): 3.294
- Fig. 7a Th-T reading, mean of three wells (column suffix _10, reading M101): 3.313
- Fig. 7a Th-T reading, mean of three wells (column suffix _10, reading M102): 3.28
- Fig. 7a Th-T reading, mean of three wells (column suffix _10, reading M103): 3.294
- Fig. 7a Th-T reading, mean of three wells (column suffix _10, reading M104): 3.29
- Fig. 7a Th-T reading, mean of three wells (column suffix _10, reading M105): 3.266
- Fig. 7a Th-T reading, mean of three wells (column suffix _10, reading M106): 3.268
- Th-T fluorescence, mean of three wells (Fig. 7a) (column suffix _20, measurement M19): 3.146
- Th-T fluorescence, mean of three wells (Fig. 7a) (column suffix _20, measurement M20): 3.22
- Th-T fluorescence, mean of three wells (Fig. 7a) (column suffix _20, measurement M21): 3.265
- Th-T fluorescence, mean of three wells (Fig. 7a) (column suffix _20, measurement M22): 3.294
- Th-T fluorescence, mean of three wells (Fig. 7a) (column suffix _20, measurement M23): 3.285
- Th-T fluorescence, mean of three wells (Fig. 7a) (column suffix _20, measurement M24): 3.3066
- Th-T fluorescence, mean of three wells (Fig. 7a) (column suffix _20, measurement M25): 3.328
- Th-T fluorescence, mean of three wells (Fig. 7a) (column suffix _20, measurement M26): 3.367
- Th-T fluorescence, mean of three wells (Fig. 7a) (column suffix _20, measurement M27): 3.353
- Th-T fluorescence, mean of three wells (Fig. 7a) (column suffix _20, measurement M28): 3.346
- Th-T fluorescence, mean of three wells (Fig. 7a) (column suffix _20, measurement M29): 3.34
- Th-T fluorescence, mean of three wells (Fig. 7a) (column suffix _20, measurement M30): 3.361
- Th-T assay signal, mean of three wells (Fig. 7a) (column suffix _20, reading M1): 0.2139
- Th-T assay signal, mean of three wells (Fig. 7a) (column suffix _20, reading M2): 0.2391
- Th-T assay signal, mean of three wells (Fig. 7a) (column suffix _20, reading M3): 0.2688
- Th-T assay signal, mean of three wells (Fig. 7a) (column suffix _20, reading M4): 0.2877
- Th-T assay signal, mean of three wells (Fig. 7a) (column suffix _20, reading M5): 0.33
- Th-T assay signal, mean of three wells (Fig. 7a) (column suffix _20, reading M6): 0.4061
- Th-T assay signal, mean of three wells (Fig. 7a) (column suffix _20, reading M7): 0.4716
- Th-T assay signal, mean of three wells (Fig. 7a) (column suffix _20, reading M8): 0.5038
- Th-T assay signal, mean of three wells (Fig. 7a) (column suffix _20, reading M9): 0.5302
- Th-T assay signal, mean of three wells (Fig. 7a) (column suffix _20, reading M10): 0.5653
- Th-T assay signal, mean of three wells (Fig. 7a) (column suffix _20, reading M11): 0.6147
- Th-T assay signal, mean of three wells (Fig. 7a) (column suffix _20, reading M12): 0.7691
- Th-T assay signal, mean of three wells (Fig. 7a) (column suffix _20, reading M13): 1.152
- Th-T assay signal, mean of three wells (Fig. 7a) (column suffix _20, reading M14): 1.832
- Th-T assay signal, mean of three wells (Fig. 7a) (column suffix _20, reading M15): 2.436
- Th-T assay signal, mean of three wells (Fig. 7a) (column suffix _20, reading M16): 2.813
- Th-T assay signal, mean of three wells (Fig. 7a) (column suffix _20, reading M17): 2.993
- Th-T assay signal, mean of three wells (Fig. 7a) (column suffix _20, reading M18): 3.081
- Fig. 7a Th-T reading, mean of three wells (column suffix _20, reading M85): 3.286
- Fig. 7a Th-T reading, mean of three wells (column suffix _20, reading M86): 3.29
- Fig. 7a Th-T reading, mean of three wells (column suffix _20, reading M87): 3.2956
- Fig. 7a Th-T reading, mean of three wells (column suffix _20, reading M88): 3.332
- Fig. 7a Th-T reading, mean of three wells (column suffix _20, reading M89): 3.367
- Fig. 7a Th-T reading, mean of three wells (column suffix _20, reading M90): 3.341
- Fig. 7a Th-T reading, mean of three wells (column suffix _20, reading M91): 3.299
- Fig. 7a Th-T reading, mean of three wells (column suffix _20, reading M92): 3.303
- Fig. 7a Th-T reading, mean of three wells (column suffix _20, reading M93): 3.313
- Fig. 7a Th-T reading, mean of three wells (column suffix _20, reading M94): 3.332
- Fig. 7a Th-T reading, mean of three wells (column suffix _20, reading M95): 3.309
- Fig. 7a Th-T reading, mean of three wells (column suffix _20, reading M96): 3.268
- Fig. 7a Th-T reading, mean of three wells (column suffix _20, reading M97): 3.26
- Fig. 7a Th-T reading, mean of three wells (column suffix _20, reading M98): 3.269
- Fig. 7a Th-T reading, mean of three wells (column suffix _20, reading M99): 3.3
- Fig. 7a Th-T reading, mean of three wells (column suffix _20, reading M100): 3.292
